ChEMBL document CHEMBL5465560, “Selectivity Literature for EUbOPEN Chemogenomic Library” (2024)

What was measured:
[1] = biological target: Serine/threonine-protein kinase 38 (Homo sapiens) (UniProt Q15208); assay: Selectivity interaction (Kinase panel (KiNativ target engagement assay in Jurkat cells)) EUB0001635a STK38; type: cell-based; details: Selectivity number of off-targets 0.0, Selectivity number of targets 233.0, Source Knowledge https://www.sciencedirect.com/science/article/pii/S2451945619300674?via%3Dihub, at 1 µM
Chain of Serine/threonine-protein kinase 38 (Homo sapiens) (Q15208 2-465 limits assumed): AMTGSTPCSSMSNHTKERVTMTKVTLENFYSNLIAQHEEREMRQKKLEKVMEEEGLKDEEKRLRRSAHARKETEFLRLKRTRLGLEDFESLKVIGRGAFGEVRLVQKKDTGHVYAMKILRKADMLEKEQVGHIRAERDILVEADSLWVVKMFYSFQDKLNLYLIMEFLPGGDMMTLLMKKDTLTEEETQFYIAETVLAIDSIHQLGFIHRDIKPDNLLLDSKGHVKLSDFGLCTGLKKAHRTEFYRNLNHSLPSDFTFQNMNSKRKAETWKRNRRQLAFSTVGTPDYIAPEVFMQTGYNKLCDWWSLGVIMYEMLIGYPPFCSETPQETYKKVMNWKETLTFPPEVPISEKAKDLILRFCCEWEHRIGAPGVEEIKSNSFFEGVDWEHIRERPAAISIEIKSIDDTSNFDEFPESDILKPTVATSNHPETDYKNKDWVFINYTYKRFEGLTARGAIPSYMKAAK

[2] = biological target: T1, Inhibitor of nuclear factor kappa-B kinase subunit epsilon (Homo sapiens) (UniProt Q14164); assay: Selectivity interaction (Kinase panel (KiNativ target engagement assay in Jurkat cells)) EUB0001635a IKBKE; type: cell-based; details: at 1 µM
T1 sequence (whole entry): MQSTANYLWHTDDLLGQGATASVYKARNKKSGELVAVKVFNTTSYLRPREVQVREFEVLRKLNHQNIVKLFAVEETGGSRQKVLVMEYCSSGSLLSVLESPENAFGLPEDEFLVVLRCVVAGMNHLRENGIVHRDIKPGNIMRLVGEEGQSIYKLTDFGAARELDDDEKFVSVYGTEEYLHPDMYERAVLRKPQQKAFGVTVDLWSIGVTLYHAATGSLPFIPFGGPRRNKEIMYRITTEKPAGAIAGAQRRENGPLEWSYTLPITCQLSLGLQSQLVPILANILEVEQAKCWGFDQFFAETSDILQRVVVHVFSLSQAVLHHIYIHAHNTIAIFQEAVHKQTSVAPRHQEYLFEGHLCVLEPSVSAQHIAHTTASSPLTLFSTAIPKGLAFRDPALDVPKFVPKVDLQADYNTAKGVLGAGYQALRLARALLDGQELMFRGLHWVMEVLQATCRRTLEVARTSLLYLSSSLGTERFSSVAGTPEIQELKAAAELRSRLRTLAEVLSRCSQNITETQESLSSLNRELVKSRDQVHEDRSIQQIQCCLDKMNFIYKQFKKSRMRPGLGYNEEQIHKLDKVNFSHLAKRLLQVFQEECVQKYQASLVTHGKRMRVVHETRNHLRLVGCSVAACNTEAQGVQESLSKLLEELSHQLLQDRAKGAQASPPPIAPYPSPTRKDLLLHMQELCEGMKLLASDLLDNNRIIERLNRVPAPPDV

[3] = biological target: Angiopoietin-1 receptor (Homo sapiens) (UniProt Q02763); assay: Selectivity interaction (KinomeScan (DiscoverX)) EUB0000045b TEK
Chain of Angiopoietin-1 receptor (Homo sapiens) (Q02763 whole entry): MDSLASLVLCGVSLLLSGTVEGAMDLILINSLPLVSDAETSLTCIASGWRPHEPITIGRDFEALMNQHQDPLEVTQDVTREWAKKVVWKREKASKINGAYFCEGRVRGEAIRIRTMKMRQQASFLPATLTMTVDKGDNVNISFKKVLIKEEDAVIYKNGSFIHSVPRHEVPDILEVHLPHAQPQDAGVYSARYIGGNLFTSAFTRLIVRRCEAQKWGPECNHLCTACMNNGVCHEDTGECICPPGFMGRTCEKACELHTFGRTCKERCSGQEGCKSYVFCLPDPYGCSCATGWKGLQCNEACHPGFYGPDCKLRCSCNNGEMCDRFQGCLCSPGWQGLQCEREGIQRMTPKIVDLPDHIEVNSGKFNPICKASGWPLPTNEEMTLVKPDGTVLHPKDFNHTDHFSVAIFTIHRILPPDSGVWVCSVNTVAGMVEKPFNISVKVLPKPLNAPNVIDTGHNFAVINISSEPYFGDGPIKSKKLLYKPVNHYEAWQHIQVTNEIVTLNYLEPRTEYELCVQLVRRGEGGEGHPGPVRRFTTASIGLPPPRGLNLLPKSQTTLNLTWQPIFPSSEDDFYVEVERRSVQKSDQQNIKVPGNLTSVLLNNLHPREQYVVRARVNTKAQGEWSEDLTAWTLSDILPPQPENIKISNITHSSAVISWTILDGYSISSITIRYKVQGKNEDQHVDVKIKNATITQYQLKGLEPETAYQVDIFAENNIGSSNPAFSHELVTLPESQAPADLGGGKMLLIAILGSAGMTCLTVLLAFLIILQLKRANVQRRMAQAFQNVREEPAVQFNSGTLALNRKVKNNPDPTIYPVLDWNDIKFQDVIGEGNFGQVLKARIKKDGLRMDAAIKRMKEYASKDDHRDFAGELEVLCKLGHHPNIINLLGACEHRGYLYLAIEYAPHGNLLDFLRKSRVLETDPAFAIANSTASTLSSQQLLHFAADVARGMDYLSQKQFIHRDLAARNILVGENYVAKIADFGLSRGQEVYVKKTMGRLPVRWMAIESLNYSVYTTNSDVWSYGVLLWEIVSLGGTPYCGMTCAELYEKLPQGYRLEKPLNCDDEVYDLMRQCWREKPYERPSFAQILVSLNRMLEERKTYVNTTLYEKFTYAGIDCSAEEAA

[4] = biological target: Mitogen-activated protein kinase 7 (Homo sapiens) (UniProt Q13164); assay: Selectivity interaction (Kinase panel (Z-LYTE Assay)) EUB0001632a MAPK7; details: at 10 µM
Chain of Mitogen-activated protein kinase 7 (Homo sapiens) (Q13164 2-816 limits assumed): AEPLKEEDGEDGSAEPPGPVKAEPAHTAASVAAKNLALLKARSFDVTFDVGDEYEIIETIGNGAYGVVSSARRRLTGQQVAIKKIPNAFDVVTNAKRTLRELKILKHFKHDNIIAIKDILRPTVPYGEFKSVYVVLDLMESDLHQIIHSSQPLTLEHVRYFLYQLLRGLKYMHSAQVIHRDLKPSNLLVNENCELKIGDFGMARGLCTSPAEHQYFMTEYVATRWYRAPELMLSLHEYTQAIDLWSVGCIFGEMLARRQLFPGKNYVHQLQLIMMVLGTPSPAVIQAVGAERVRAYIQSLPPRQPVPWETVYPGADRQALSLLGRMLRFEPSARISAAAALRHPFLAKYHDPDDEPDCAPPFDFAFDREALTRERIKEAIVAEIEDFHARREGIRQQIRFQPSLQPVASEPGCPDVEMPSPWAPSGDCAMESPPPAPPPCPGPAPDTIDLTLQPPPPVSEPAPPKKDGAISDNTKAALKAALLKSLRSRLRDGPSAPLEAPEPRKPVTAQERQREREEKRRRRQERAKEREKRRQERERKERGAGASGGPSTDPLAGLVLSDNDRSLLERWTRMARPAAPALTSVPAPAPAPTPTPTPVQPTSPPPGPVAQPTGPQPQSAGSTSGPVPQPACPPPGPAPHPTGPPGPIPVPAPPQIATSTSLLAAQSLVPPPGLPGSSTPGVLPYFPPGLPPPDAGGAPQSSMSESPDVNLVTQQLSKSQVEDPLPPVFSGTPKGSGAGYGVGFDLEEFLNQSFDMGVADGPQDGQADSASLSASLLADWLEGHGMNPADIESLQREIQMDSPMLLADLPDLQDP

[5] = biological target: Phosphatidylinositol 4-kinase beta (Homo sapiens, UniProt Q9UBF8); assay: Selectivity interaction (Adapta Assay) EUB0001632a PI4KB; details: at 10 µM
Chain of Phosphatidylinositol 4-kinase beta (Q9UBF8 2-816 limits assumed): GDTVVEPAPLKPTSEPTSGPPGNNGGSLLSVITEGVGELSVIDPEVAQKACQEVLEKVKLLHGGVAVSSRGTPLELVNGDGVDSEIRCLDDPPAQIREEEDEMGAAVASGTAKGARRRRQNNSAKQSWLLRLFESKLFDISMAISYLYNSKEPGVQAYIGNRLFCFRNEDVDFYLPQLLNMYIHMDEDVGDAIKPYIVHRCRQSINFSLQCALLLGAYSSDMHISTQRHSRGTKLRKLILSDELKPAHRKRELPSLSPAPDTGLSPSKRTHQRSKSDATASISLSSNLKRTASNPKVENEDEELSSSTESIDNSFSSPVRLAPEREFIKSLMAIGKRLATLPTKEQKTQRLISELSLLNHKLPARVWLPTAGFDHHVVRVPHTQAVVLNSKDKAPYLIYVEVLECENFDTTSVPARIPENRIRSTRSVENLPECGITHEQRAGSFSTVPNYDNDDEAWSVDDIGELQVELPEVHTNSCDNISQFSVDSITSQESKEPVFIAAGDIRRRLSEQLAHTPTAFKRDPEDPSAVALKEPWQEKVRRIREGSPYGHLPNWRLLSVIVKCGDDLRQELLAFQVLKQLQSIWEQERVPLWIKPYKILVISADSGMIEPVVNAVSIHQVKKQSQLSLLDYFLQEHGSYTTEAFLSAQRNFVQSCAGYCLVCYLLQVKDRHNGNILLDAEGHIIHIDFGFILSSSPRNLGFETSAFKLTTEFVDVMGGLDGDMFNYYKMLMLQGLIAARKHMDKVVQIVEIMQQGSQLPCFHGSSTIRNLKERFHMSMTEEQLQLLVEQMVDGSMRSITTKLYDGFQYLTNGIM

[6] = biological target: Mitogen-activated protein kinase kinase kinase 11 (Homo sapiens) (UniProt Q16584); assay: Selectivity interaction (LanthaScreen Eu Kinase Binding Assay) EUB0001632a MAP3K11; details: at 10 µM
Chain of Mitogen-activated protein kinase kinase kinase 11 (Homo sapiens) (Q16584 whole entry, looked up): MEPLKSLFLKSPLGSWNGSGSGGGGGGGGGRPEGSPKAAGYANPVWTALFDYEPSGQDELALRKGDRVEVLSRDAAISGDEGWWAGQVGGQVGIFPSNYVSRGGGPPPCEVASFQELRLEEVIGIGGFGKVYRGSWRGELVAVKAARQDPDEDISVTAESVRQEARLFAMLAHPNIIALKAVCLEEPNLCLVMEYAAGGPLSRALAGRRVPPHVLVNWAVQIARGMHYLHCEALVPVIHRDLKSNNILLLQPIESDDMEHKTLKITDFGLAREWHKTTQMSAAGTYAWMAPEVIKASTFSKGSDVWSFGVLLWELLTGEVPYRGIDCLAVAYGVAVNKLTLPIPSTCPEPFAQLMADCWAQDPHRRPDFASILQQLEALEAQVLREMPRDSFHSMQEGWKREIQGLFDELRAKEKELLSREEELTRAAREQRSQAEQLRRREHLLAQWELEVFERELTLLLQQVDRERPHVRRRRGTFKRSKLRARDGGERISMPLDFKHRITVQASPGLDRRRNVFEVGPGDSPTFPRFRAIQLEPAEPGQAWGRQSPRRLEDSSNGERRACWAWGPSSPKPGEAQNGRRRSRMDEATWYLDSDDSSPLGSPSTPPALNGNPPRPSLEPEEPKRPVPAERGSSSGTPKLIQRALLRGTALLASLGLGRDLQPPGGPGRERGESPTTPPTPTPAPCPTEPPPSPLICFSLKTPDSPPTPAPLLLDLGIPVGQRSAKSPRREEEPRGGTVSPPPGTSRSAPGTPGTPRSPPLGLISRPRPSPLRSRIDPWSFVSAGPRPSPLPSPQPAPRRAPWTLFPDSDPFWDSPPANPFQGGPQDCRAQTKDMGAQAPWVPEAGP

[7] = biological target: T2, Phosphatidylinositol 5-phosphate 4-kinase type-2 gamma (Homo sapiens) (UniProt Q8TBX8); assay: Selectivity interaction (KinomeScan (DiscoverX)) EUB0000666a PIP4K2C; details: at 10 µM
T2 sequence (whole entry): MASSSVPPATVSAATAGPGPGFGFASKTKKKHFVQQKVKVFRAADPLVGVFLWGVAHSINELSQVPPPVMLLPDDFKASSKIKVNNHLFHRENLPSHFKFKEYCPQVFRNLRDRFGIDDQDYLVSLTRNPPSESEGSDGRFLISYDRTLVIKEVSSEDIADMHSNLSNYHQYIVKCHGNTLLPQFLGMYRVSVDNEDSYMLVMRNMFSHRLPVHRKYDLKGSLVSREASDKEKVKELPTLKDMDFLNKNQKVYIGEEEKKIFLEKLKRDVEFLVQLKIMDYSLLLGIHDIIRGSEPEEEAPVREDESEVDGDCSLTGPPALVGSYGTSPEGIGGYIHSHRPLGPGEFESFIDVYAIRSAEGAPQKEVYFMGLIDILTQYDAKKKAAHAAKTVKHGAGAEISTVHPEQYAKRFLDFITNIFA

[8] = biological target: Cyclin-dependent kinase 1/cyclin B (Homo sapiens) (UniProt P06493+P14635+Q8WWL7+O95067); assay: Selectivity interaction (SelectScreen profiling (Invitrogen)) EUB0000607a CDK1; type: protein-complex assay; details: at 2 µM
[9] = biological target: T3, Serine/threonine-protein kinase DCLK3 (Homo sapiens) (UniProt Q9C098); assay: Selectivity interaction (Ambit KINOMEscan and KiNATiv profiling in Jurkat cells) EUB0000090b DCLK3; type: cell-based; details: at 1 µM
T3 sequence (whole entry): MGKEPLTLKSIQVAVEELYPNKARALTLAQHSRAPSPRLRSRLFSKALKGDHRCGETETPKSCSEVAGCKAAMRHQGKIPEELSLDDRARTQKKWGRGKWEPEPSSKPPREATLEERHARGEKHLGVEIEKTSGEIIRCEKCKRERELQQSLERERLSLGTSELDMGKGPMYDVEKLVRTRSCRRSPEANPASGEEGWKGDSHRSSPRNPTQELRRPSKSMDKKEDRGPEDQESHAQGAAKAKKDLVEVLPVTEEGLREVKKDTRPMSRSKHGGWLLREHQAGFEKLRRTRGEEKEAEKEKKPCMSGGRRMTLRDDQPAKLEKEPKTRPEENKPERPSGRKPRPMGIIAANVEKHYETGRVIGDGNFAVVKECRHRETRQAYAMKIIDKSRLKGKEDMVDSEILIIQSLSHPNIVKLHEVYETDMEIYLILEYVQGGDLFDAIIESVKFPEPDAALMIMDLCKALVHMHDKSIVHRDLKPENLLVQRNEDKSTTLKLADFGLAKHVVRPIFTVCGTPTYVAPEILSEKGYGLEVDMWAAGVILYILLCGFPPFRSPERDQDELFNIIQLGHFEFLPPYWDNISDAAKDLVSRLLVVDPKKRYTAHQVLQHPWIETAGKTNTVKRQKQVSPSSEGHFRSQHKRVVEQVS

C=CC(=O)Nc1ccc(C(=O)Nc2[nH]nc3c2CN(C(=O)N[C@H](CN(C)C)c2ccccc2)C3(C)C)cc1
% of engagement [1]: -3.5% | % of engagement ([2]; Selectivity number of off-targets 0.0, Selectivity number of targets 233.0, Source Knowledge https://www.sciencedirect.com/science/article/pii/S2451945619300674?via%3Dihub): 28.4% | % of engagement [2]: 32.7%

C=CC(=O)Nc1cc(-n2c(=O)ccc3cnc4ccc(-c5ccc(NS(C)(=O)=O)cc5)cc4c32)ccc1C
% of control ([3]; at 1 µM): 89% | % of control ([3]; at 10 µM): 99%

Cn1cc(-n2cnc3c(NCc4nc5cc(Cl)c(Cl)cc5[nH]4)nc(N4CCOCC4)nc32)cn1
% of control [4]: 2.02% | % of inhibition [5]: -10.8% | % of inhibition [6]: -0.811%

O=C(NOC[C@H](O)CO)c1ccc(F)c(F)c1Nc1ccc(I)cc1F
% of control [7]: 100%

CNC(=O)Nc1ccc(-c2nc(N3CC4CCC(C3)O4)c3cnn(C4CCC5(CC4)OCCO5)c3n2)cc1
% of inhibition [8]: 6%

CN(C)C/C=C/C(=O)Nc1ccc(C(=O)N2CCCC(Nc3ncc(Cl)c(-c4c[nH]c5ccccc45)n3)C2)cc1 (stereo unspecified)
% of control [9]: 76%
